Activity calls are given as the source filed them. The rule behind the calls is not given here.
What was measured:
Mus musculus [1] = experiment: Anti-MASH activity in HFD-fed CCl4-treated male C57BL/6 mouse assessed as reduction in fat accumulation in liver at 150 mg/kg, po qd treated for 4 weeks by Oil red O staining based analysis; format: functional, organism-based
Mus musculus [2] = experiment: Anti-MASH activity in HFD-fed CCl4-treated male C57BL/6 mouse assessed as reduction in liver IL-6 level at 150 mg/kg, po qd treated for 4 weeks by ELISA; format: functional, organism-based
[3] = Inhibition of lipid peroxidation in egg yolk (unknown origin) preheated with compound and FeSO4 for 15 mins followed by TCA/TBA addition measured after 15 mins by absorbance based assay; format: functional, tissue-based
Mus musculus [4] = experiment: Anti-MASH activity in HFD-fed CCl4-treated male C57BL/6 mouse assessed as reduction in steatosis in liver at 150 mg/kg, po qd treated for 4 weeks by H and E/Oil red O staining based analysis; format: functional, organism-based
LX-2 [5] = experiment: Anti-MASH activity in TGF-beta-activated-human LX2 cells assessed as reduction in fibronectin level incubated for 48 hrs by Western blot analysis; format: functional, cell-based; details: dose 10-40 µM
Rattus norvegicus [6] = experiment: Hepatoprotective activity in male Sprague-Dawley rat model of CCl4-induced ALI assessed as reduction in MDA level at 100 mg/kg, IG qd pretreated with compound for 7 days followed by CCl4 administration after 2 hrs post-compound treatment measured after 16 hrs post-CCl4 injection; format: functional, organism-based; details: time 186.0 hrs
Mus musculus [7] = experiment: Anti-MASH activity in HFD-fed CCl4-treated male C57BL/6 mouse assessed as reduction in serum LDL cholesterol level at 150 mg/kg, po qd treated for 4 weeks; format: functional, organism-based
Mus musculus [8] = experiment: Anti-MASH activity in HFD-fed CCl4-treated male C57BL/6 mouse assessed as reversal of hepatopancreas somatic indices at 150 mg/kg, po qd treated for 4 weeks; format: functional, organism-based
Rattus norvegicus [9] = experiment: Hepatoprotective activity in male Sprague-Dawley rat model of CCl4-induced ALI assessed as reduction in roughened surface in liver at 100 mg/kg, IG qd pretreated with compound for 7 days followed by CCl4 administration after 2 hrs post-compound treatment measured after 16 hrs post-CCl4 injection; format: functional, organism-based; details: time 186.0 hrs
Hepatocyte [10] = experiment: Anti-inflammatory activity in CCl4-stimulated mouse primary hepatocytes assessed as reduction in TNF-alpha mRNA level at 1 uM; format: functional, cell-based
L02 [11] = experiment: Anti-MASH activity in palmitate/oleate-stimulated human LO2 cells assessed as reduction in triglyceride level incubated for 24 hrs; format: functional, cell-based; details: dose 10-40 µM
Rattus norvegicus [12] = experiment: Hepatoprotective activity in male Sprague-Dawley rat model of CCl4-induced ALI assessed as reduction in […] somatic indices at 100 mg/kg, IG qd pretreated with compound for 7 days followed by CCl4 administration after 2 hrs post-compound treatment measured after 16 hrs post-CCl4 injection; format: functional, organism-based; details: time 186.0 hrs
Mus musculus [13] = experiment: Anti-MASH activity in HFD-fed CCl4-treated male C57BL/6 mouse assessed as restoration of serum ALT level at 150 mg/kg, po qd treated for 4 weeks; format: functional, organism-based
[14] = MRT (0 to infinity) in overnight-fasted male Sprague-Dawley rat at 150 mg/kg, po measured up to 12 hrs by HPLC analysis; format: ADME, organism-based; details: in vivo
Hepatocyte [15] = experiment: Anti-MASH activity in CCl4-stimulated mouse primary hepatocytes assessed as reduction in ROS level at 2.5 to 10 uM by DCFH-DA staining assay; format: functional, cell-based; details: dose 2.5-10 µM
Rattus norvegicus [16] = experiment: Hepatoprotective activity in male Sprague-Dawley rat model of CCl4-induced ALI assessed as restoration of serum AST level at 100 mg/kg, IG qd pretreated with compound for 7 days followed by CCl4 administration after 2 hrs post-compound treatment measured after 16 hrs post-CCl4 injection; format: functional, organism-based; details: time 186.0 hrs
[17] = Apparent clearance during terminal phase in overnight-fasted male Sprague-Dawley rat at 150 mg/kg, po measured up to 12 hrs by HPLC analysis; format: ADME, organism-based; details: in vivo, read-out: CLz/F (converted)
[18] = Antioxidant activity assessed as clearing rate incubated for 5 mins in presence of pyrogallol by superoxide anion scavenging assay; format: functional
[19] = Apparent volume of distribution during terminal phase in overnight-fasted male Sprague-Dawley rat at 150 mg/kg, po measured up to 12 hrs by HPLC analysis; format: ADME, organism-based; details: in vivo, read-out: Vz/F
Mus musculus [20] = experiment: Anti-MASH activity in HFD-fed CCl4-treated male C57BL/6 mouse assessed as reduction in collagen I in liver at 150 mg/kg, po qd treated for 4 weeks by IHC analysis; format: functional, organism-based
Mus musculus [21] = experiment: Anti-MASH activity in HFD-fed CCl4-treated male C57BL/6 mouse assessed as reversal of mottled texture of liver at 150 mg/kg, po qd treated for 4 weeks; format: functional, organism-based
LX-2 [22] = experiment: Anti-MASH activity in TGF-beta-activated-human LX2 cells assessed as reduction in collagen I level incubated for 48 hrs by Western blot analysis; format: functional, cell-based; details: dose 10-40 µM
Mus musculus [23] = experiment: Anti-MASH activity in HFD-fed CCl4-treated male C57BL/6 mouse assessed as reversal of light color of liver at 150 mg/kg, po qd treated for 4 weeks; format: functional, organism-based
Mus musculus [24] = experiment: Anti-MASH activity in HFD-fed CCl4-treated male C57BL/6 mouse assessed as reduction in hepatic cholesterol level at 150 mg/kg, po qd treated for 4 weeks by ELISA; format: functional, organism-based
Rattus norvegicus [25] = experiment: Hepatoprotective activity in male Sprague-Dawley rat model of CCl4-induced ALI assessed as restoration of serum ALT level at 100 mg/kg, IG qd pretreated with compound for 7 days followed by CCl4 administration after 2 hrs post-compound treatment measured after 16 hrs post-CCl4 injection; format: functional, organism-based; details: time 186.0 hrs
Mus musculus [26] = experiment: Anti-MASH activity in HFD-fed CCl4-treated male C57BL/6 mouse assessed as reduction in liver TNF-alpha level at 150 mg/kg, po qd treated for 4 weeks by ELISA; format: functional, organism-based
L02 [27] = experiment: Anti-MASH activity in palmitate/oleate-stimulated human LO2 cells assessed as reduction in SCD mRNA level at 10 to 40 uM incubated for 24 hrs by q-PCR analysis; format: functional, cell-based; details: dose 10-40 µM
Mus musculus [28] = experiment: Anti-MASH activity in HFD-fed CCl4-treated male C57BL/6 mouse assessed as reduction in alpha-SMA in liver at 150 mg/kg, po qd treated for 4 weeks by IHC analysis; format: functional, organism-based
L02 [29] = experiment: Anti-MASH activity in CCl4-stimulated human LO2 cells assessed as reduction in ROS level incubated for 24 hrs by DCFH-DA staining assay; format: functional, cell-based; details: dose 2.5-10 µM
L02 [30] = experiment: Anti-MASH activity in palmitate/oleate-stimulated human LO2 cells assessed as reduction in FASN mRNA level at 10 to 40 uM incubated for 24 hrs by q-PCR analysis; format: functional, cell-based; details: dose 10-40 µM
Mus musculus [31] = experiment: Anti-MASH activity in HFD-fed CCl4-treated male C57BL/6 mouse assessed as restoration of liver GSH level at 150 mg/kg, po qd treated for 4 weeks; format: functional, organism-based
Mus musculus [32] = experiment: Anti-MASH activity in HFD-fed CCl4-treated male C57BL/6 mouse assessed as reduction in serum cholesterol level at 150 mg/kg, po qd treated for 4 weeks; format: functional, organism-based

COc1cc([C@@H]2Oc3cc([C@H]4Oc5cc(O)cc(O)c5C(=O)[C@@H]4O)ccc3OC2CS)ccc1O (some centres not stated)
Activity (Mus musculus [1]): Active | Activity (Mus musculus [2]): Active | IC50 [3]: 41.7 µM | Activity (Mus musculus [4]): Active; Activity Was Better Than Silybin | Activity (LX-2 [5]): Dose-dependent-effect | Activity (Rattus norvegicus [6]): Active; Exhibited Better Efficacy Than Silybin | Activity (Mus musculus [7]): Active | Activity (Mus musculus [8]): Active | Activity (Rattus norvegicus [9]): Active | Activity (Hepatocyte [10]): Active | Activity (L02 [11]): Dose-dependent-effect | Activity (Rattus norvegicus [12]): Active | Activity (Mus musculus [13]): Active; Activity Was Better Than Silybin | MRT inf [14]: 3.51 h | Activity (Hepatocyte [15]): Active | Activity (Rattus norvegicus [16]): Active | CL/F [17]: 51.3 mL/min | Activity [18]: 82.9% | Vd/F [19]: 6.91 L | Activity (Mus musculus [20]): Active | Activity (Mus musculus [21]): Active; Activity Better Than Silybin | Activity (LX-2 [22]): Dose-dependent-effect | Activity (Mus musculus [23]): Active; Activity Better Than Silybin | Activity (Mus musculus [24]): Active; Activity Was More Significant Than Silybin | Activity (Rattus norvegicus [25]): Active | Activity (Mus musculus [26]): Active | Activity (L02 [27]): Active | Activity (Mus musculus [28]): Active | Activity (L02 [29]): Active | Activity (L02 [30]): Active | Activity (Mus musculus [31]): Active; Compound Was More Significant Than Silybin | Activity (Mus musculus [32]): Active
